Results reported in patent US9446039B2, “Aminoheteroaryl compounds as MTH1 inhibitors” (CEMM—FORSCHUNGSZENTRUM FÜR MOLEKULARE MEDIZIN GMBH, priority 2012, dated 2016).

Experiments:
[1] = target: SW480 colon carcinoma cells lysate proteins (Homo sapiens, UniProt P18085); type: binding; settings: PreyGene ARF4
[2] = target: T1, SW480 colon carcinoma cells lysate proteins (Homo sapiens, UniProt P37837); type: binding; settings: PreyGene TALDO1
T1 sequence (P37837 1-337): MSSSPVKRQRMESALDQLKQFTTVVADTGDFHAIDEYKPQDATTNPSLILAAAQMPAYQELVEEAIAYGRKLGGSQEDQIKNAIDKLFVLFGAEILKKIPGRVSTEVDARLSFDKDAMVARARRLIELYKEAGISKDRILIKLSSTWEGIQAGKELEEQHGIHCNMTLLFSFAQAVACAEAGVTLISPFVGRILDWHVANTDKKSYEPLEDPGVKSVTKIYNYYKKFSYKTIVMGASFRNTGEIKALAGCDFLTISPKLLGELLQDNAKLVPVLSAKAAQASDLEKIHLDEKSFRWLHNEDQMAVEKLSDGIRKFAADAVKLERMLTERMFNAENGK

[3] = target: SW480 colon carcinoma cells lysate proteins (Homo sapiens, UniProt P53999); type: binding; settings: PreyGene SUB1
[4] = target: SW480 colon carcinoma cells lysate proteins (Homo sapiens, UniProt P62861); type: binding; settings: PreyGene FAU
[5] = target: SW480 colon carcinoma cells lysate proteins (Homo sapiens, UniProt P68366); type: binding; settings: PreyGene TUBA4A; SW480 cells
Sequence of SW480 colon carcinoma cells lysate proteins (Homo sapiens, UniProt P68366) (P68366 whole entry): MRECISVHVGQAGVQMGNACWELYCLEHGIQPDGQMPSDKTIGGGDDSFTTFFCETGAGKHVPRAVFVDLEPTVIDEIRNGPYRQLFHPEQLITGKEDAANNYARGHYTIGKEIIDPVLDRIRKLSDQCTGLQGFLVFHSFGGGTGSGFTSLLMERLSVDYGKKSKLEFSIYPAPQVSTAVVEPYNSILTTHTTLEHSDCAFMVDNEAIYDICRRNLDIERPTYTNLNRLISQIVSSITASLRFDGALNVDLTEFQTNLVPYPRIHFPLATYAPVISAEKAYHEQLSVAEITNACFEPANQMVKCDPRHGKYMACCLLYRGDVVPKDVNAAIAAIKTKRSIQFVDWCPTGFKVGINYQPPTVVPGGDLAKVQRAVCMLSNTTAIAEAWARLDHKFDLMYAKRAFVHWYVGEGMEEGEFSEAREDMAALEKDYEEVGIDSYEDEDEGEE

[6] = target: T2, SW480 colon carcinoma cells lysate proteins (Homo sapiens, UniProt Q13442); type: binding; settings: PreyGene PDAP1; SW480 cells
T2 sequence (Q13442 1-181): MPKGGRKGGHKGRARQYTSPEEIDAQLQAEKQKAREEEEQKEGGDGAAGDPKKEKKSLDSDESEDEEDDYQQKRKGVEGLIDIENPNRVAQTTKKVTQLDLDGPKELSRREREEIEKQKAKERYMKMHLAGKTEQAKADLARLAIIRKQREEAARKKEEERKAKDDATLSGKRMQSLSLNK

[7] = target: T3, SW480 colon carcinoma cells lysate proteins (Homo sapiens, UniProt Q14498); type: binding; settings: PreyGene RBM39
T3 sequence (Q14498 1-530): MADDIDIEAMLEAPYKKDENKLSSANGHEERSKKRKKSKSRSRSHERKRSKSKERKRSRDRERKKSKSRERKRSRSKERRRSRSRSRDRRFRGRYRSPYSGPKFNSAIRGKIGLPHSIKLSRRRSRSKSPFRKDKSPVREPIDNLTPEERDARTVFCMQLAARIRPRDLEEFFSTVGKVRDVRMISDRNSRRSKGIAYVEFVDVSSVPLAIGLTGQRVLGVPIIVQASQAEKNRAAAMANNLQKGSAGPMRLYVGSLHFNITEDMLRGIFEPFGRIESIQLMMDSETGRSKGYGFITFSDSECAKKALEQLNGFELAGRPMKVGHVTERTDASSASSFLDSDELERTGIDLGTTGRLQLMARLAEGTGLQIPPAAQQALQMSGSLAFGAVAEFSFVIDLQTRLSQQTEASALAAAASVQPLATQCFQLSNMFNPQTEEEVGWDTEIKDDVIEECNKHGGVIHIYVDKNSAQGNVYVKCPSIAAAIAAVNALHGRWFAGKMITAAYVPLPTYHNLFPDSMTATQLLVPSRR

[8] = target: SW480 colon carcinoma cells lysate proteins (Homo sapiens, UniProt Q92598); type: binding; settings: PreyGene HSPH1
Sequence of SW480 colon carcinoma cells lysate proteins (Homo sapiens, UniProt Q92598) (Q92598 whole entry): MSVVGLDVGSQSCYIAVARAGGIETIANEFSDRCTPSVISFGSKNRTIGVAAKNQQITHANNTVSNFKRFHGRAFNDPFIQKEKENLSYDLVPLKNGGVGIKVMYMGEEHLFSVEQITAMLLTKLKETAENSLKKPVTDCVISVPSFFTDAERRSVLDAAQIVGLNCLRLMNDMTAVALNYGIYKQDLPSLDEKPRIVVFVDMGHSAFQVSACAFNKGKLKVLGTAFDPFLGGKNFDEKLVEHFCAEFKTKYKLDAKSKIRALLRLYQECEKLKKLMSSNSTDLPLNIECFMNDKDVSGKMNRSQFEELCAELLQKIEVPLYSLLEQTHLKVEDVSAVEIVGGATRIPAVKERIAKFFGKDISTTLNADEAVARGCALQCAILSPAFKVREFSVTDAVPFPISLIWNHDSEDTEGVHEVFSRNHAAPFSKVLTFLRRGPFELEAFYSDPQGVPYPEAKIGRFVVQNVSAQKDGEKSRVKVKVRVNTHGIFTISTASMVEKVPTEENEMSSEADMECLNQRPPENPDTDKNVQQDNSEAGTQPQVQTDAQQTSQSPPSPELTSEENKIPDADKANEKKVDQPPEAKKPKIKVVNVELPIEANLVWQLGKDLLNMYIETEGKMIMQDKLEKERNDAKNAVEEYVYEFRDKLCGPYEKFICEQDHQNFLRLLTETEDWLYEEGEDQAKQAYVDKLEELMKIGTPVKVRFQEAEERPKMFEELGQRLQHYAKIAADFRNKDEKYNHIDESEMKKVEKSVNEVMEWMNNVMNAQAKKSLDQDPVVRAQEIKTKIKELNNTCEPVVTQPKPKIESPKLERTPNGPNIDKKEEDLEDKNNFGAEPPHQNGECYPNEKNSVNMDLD

[9] = system: SW480 colon carcinoma cells lysate proteins; type: binding, human; settings: PreyGene EIF3C, EIF3CL; SW480 cells

Sequence of SW480 colon carcinoma cells lysate proteins (Homo sapiens, UniProt P18085) (P18085 whole entry): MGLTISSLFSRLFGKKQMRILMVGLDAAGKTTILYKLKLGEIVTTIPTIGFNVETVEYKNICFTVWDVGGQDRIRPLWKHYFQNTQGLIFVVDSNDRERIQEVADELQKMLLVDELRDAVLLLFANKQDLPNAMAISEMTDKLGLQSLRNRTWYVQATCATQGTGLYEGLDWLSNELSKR

C[C@H](Oc1cc(-c2cnn(C3CCNCC3)c2)cnc1N)c1c(Cl)ccc(F)c1Cl [(5)-crizotinib]
AvgP [1]: 0.352 | SC.Exp. 1-1 [1]: 3 | SC.Exp. 1-2 [1]: 3 | SC.Exp. 2-1 [1]: 0 | SC.Exp. 2-2 [1]: 0 | Sum (SC.Exp.) [1]: 6 | AvgP [2]: 0.3739 | SC.Exp. 1-1 [2]: 2 | SC.Exp. 1-2 [2]: 2 | SC.Exp. 2-1 [2]: 0 | SC.Exp. 2-2 [2]: 0 | Sum (SC.Exp.) [2]: 4 | AvgP [3]: 0.206 | SC.Exp. 1-1 [3]: 5 | SC.Exp. 1-2 [3]: 5 | SC.Exp. 2-1 [3]: 2 | SC.Exp. 2-2 [3]: 4 | Sum (SC.Exp.) [3]: 16 | AvgP [4]: 0.2109 | SC.Exp. 1-1 [4]: 2 | SC.Exp. 1-2 [4]: 4 | SC.Exp. 2-1 [4]: 0 | SC.Exp. 2-2 [4]: 2 | Sum (SC.Exp.) [4]: 8 | AvgP [5]: 0 | SC.Exp. 1-1 [5]: 22 | SC.Exp. 1-2 [5]: 20 | SC.Exp. 2-1 [5]: 14 | SC.Exp. 2-2 [5]: 12 | SC.Exp. Sum [5]: 68 | AvgP [6]: 0 | SC.Exp. 1-1 [6]: 1 | SC.Exp. 1-2 [6]: 1 | SC.Exp. 2-1 [6]: 0 | SC.Exp. 2-2 [6]: 0 | SC.Exp. Sum [6]: 2 | AvgP [7]: 0.4214 | SC.Exp. 1-1 [7]: 4 | SC.Exp. 1-2 [7]: 3 | SC.Exp. 2-1 [7]: 0 | SC.Exp. 2-2 [7]: 0 | Sum (SC.Exp.) [7]: 7 | AvgP [8]: 0.4697 | SC.Exp. 1-1 [8]: 7 | SC.Exp. 1-2 [8]: 5 | SC.Exp. 2-1 [8]: 0 | SC.Exp. 2-2 [8]: 0 | Sum (SC.Exp.) [8]: 12 | AvgP [9]: 0 | SC.Exp. 1-1 [9]: 4 | SC.Exp. 1-2 [9]: 6 | SC.Exp. 2-1 [9]: 7 | SC.Exp. 2-2 [9]: 7 | SC.Exp. Sum [9]: 24
